Assay results taken from patent US8987273B2, “Substituted imidazo[1,2-B]pyridazines” (Bayer Intellectual Property GmbH, priority 2010, dated 2015).

Key:
[1] = biological target: His-tagged human recombinant kinase full-length Akt1 (Homo sapiens (Human), UniProt P31749); test: Akt1 kinase assay (TR-FRET); format: biochemical; conditions: 10 μM ATP; median
Text: Akt1 inhibitory activity of compounds of the present invention was quantified employing the Akt1 TR-FRET assay as described in the following paragraphs. His-tagged human recombinant kinase full-length Akt1 expressed in insect cells was purchased form Invitrogen (part number PV 3599). As substrate for the kinase reaction the biotinylated peptide biotin-Ahx-[…] (C-terminus in amide form) was used which can be purchased e.g. from the company Biosynthan GmbH (Berlin-Buch, Germany).
(§1) For the assay 50 nl of a 100 fold concentrated solution of the test compound in DMSO was pipetted into a black low volume 384 well microtiter plate (Greiner Bio-One, Frickenhausen, Germany), 2 μl of a solution of Akt1 in assay buffer [50 mM TRIS/HCl pH 7.5, 5 mM MgCl2, 1 mM dithiothreitol, 0.02% (v/v) Triton X-100 (Sigma)] were added and the mixture was incubated for 15 min at 22° C. to allow pre-binding of the test compounds to the enzyme before the start of the kinase reaction. Then the kinase reaction was started by the addition of 3 μl of a solution of adenosine-tri-phosphate (ATP, 16.7 μM=>final conc. in the 5 μl assay volume is 10 μM) and substrate (1.67 μM=>final conc. in the 5 μl assay volume is 1 μM) in assay buffer and the resulting mixture was incubated for a reaction time of 60 min at 22° C. The concentration of Akt1 in the assay was adjusted depending of the activity of the enzyme lot and was chosen appropriate to have the assay in the linear range, typical enzyme concentrations were in the range of about 0.05 ng/μl (final conc. in the 5 μl assay volume).
(§2) The reaction was stopped by the addition of 5 μl of a solution of HTRF detection reagents (200 nM streptavidine-XL665 [Cisbio] and 1.5 nM anti-phosho-Serine antibody [Millipore, cat. #35-001] and 0.75 nM LANCE Eu-W 1024 labeled anti-mouse IgG antibody [Perkin Elmer]) in an aqueous EDTA-solution (100 mM EDTA, 0.1% (w/v) bovine serum albumin in 50 mM HEPES/NaOH pH 7.5).
(§3) The resulting mixture was incubated 1 h at 22° C. to allow the binding of the biotinylated phosphorylated peptide to the streptavidine-XL665 and the antibodies. Subsequently the amount of phosphorylated substrate was evaluated by measurement of the resonance energy transfer from the anti-mouse-IgG-Eu-Chelate to the streptavidine-XL665. Therefore, the fluorescence emissions at 620 nm and 665 nm after excitation at 350 nm was measured in a HTRF reader, e.g. a Rubystar (BMG Labtechnologies, Offenburg, Germany) or a Viewlux (Perkin-Elmer). The ratio of the emissions at 665 nm and at […] was taken as the measure for the amount of phosphorylated substrate. The data were normalised (enzyme reaction without inhibitor=0% inhibition, all other assay components but no enzyme=100% inhibition).

[2] = biological target: His-tagged human recombinant kinase full-length Akt2 (Homo sapiens (Human), UniProt P31751); test: Akt2 kinase assay (TR-FRET); format: biochemical; conditions: 10 μM ATP; median
Text: Akt2 inhibitory activity of compounds of the present invention was quantified employing the Akt2 TR-FRET assay as described in the following paragraphs.
His-tagged human recombinant kinase full-length Akt2 expressed in insect cells and activated by PDK1 was purchased form Invitrogen (part number PV 3975). As substrate for the kinase reaction the biotinylated peptide biotin-Ahx-[…] (C-terminus in amide form) was used which can be purchased e.g. from the company Biosynthan GmbH (Berlin-Buch, Germany).
as §1, with “Akt2” for “Akt1”, “0.2” for “0.05”
as §2, with “0.1%/w/v\” for “0.1% (w/v)”
as §3, with “TR-FRET” for “HTRF”

KPL-4 cells = test: Tumor cell proliferation assay (CellTiter-Glo); format: cell-based; conditions: KPL4; 72 h drug exposure
Description: Compounds were tested in a cell-based assay that measures the capacity of the compounds to inhibit tumour cell proliferation following a 72 h drug exposure. Cell viability is determined using CellTiter-Glow® (CTG, Promega, cat# G757112/3). The CellTiter-Glo® Luminescent Cell Viability Assay is a homogeneous method to determine the number of viable cells in culture. Detection is based on using the luciferase reaction to measure the amount of ATP from viable cells. The amount of ATP in cells correlates with cell viability. Within minutes after a loss of membrane integrity, cells lose the ability to synthesize ATP, and endogenous ATPases destroy any remaining ATP; thus the levels of ATP fall precipitously.
Cells were plated at 3000-5000 cells/well (depending on the cell lines) in 90 μL growth medium on MTPs (Corning; #3603, black plate, clear flat bottom). For each cell line assayed, cells were plated onto a separate plate for determination of […] at t=0 hour and t=72 hour time points. Following overnight incubation at 37° C., chemiluminescence values for the t=0 samples were determined after adding 10 μl medium and 100 μl CTG solution according to manufacture protocol. Plates for the t=72 hour time points were treated with compounds diluted into growth medium at ten times final concentration added in 10 μL to the cell culture plate. Cells were then incubated for 72 hours at 37° C. Chemiluminescence values for the t=72 hour samples were determined. For data analysis, briefly, data from 24 h plate where used to reflect 100% inhibition of growth (“Ci”) and DMSO control for uninhibited growth (“C0”) and analyzed using MTS software package for IC50 and Hill coefficient. Experiments were controlled using a reference compound as standard.

[3] = test system: phospho-AKT at S473 in KPL4 breast tumour cell line; test: Cellular p-AKT1/2/3-S473 assay; format: cell-based; conditions: KPL4 cells, 2 hours treatment; median; read-out: pAKT-S743 median IC50
Description: The molecular mechanism of action was investigated in a set of experiments to assess the inhibition of the PI3K-AKT-mTOR pathway in responsive cell lines such as KPL4 breast tumour cell line (PIK3CAH1047R, HER2O/E and hormone independent). The phospho-substrates of PI3K-AKT-mTOR axis were used as the read-outs to reflect pathway inhibition. Cells were seeded at 60-80% confluency per well in 96-well cell culture plates. After overnight incubation at 37° C. 5% CO2, cells were treated with compounds and vehicle at 37° C. for 2 hours. […] All measurements where at least done in duplicates and confirmed by independent repetition.
Alternatively pAKT-S473 was measured using the “Akt Duplex” of the MULTI-SPOT® Assay System (Fa. Meso Scale Discovery, Cat# N41100B-1) following manufacturers instructions. Each assay used 20 μg of protein extract and measured total AKT and p-AKT content simultaneously in one well. All measurements where at least done in duplicates and confirmed by independent repetition. Values for P-AKT are expressed as percentage of P-AKT level compared to total-AKT content of the extracts.

Sequence of His-tagged human recombinant kinase full-length Akt1 (P31749 whole entry): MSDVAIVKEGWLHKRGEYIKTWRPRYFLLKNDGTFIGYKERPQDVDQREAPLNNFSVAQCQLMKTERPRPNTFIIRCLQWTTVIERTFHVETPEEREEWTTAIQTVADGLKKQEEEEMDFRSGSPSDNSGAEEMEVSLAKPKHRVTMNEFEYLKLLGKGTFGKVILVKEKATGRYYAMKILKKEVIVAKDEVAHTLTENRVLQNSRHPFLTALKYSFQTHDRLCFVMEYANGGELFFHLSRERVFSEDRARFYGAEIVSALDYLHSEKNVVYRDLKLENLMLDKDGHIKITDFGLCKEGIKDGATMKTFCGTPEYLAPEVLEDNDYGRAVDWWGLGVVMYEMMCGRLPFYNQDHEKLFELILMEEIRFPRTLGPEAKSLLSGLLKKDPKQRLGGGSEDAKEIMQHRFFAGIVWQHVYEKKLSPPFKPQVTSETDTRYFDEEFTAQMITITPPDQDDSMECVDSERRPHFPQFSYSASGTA
Sequence of His-tagged human recombinant kinase full-length Akt2 (P31751 whole entry): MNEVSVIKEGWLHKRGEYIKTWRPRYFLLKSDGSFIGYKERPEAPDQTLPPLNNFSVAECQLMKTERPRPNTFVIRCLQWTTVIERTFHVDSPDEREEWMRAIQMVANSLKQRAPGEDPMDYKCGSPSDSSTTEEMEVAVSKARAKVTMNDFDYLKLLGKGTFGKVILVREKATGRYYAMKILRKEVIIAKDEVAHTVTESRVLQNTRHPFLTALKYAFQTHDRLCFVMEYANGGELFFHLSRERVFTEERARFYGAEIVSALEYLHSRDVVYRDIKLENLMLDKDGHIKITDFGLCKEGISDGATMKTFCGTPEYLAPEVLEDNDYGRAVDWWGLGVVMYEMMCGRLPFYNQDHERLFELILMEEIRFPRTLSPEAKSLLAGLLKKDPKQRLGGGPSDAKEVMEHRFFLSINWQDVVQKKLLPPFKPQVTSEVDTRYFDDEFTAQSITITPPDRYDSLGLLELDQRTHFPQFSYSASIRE

Structure (SMILES)	IC50 [1] [nM]	IC50 [2] [nM]	IC50 (KPL-4 cells) [nM]	IC50 [3] [µM]
NC1(c2ccc(-c3nn4c(-c5ccc(F)cc5)cnc4cc3-c3ccccc3)cc2)CCC1 [Example 4-3, 1-{4-[3-(4-Fluorophenyl)-7-phenyl-imidazo[1,2-b]pyridazin-6-yl]-phenyl}-cyclobutylamine]	36	81	1910	–
N#Cc1ccc(-c2cnc3cc(-c4ccccc4)c(-c4ccc(C5(N)CCC5)cc4)nn23)cc1 [Example 4-1, 4-{6-[4-(1-Amino-cyclobutyl)-phenyl]-7-phenyl-imidazo[1,2-b]pyridazin-3-yl}-benzonitrile]	129	136	2030	–
NC1(c2ccc(-c3nn4ccnc4cc3-c3ccccc3)cc2)CCC1 [Example 1-0, 1-[4-(7-Phenyl-imidazo[1,2-b]pyridazin-6-yl)-phenyl]-cyclobutylamine]	246	1440	3540	–
NC1(c2ccc(-c3nn4c(-c5ccc6cn[nH]c6c5)cnc4cc3-c3ccccc3)cc2)CCC1 [Example 4-16, 1-{4-[3-(1H-indazol-6-yl)-7-phenyl-imidazo[1,2-b]pyridazin-6-yl]-phenyl}-cyclobutylamine]	11	22	5170	–
COc1cncc(-c2cnc3cc(-c4ccccc4)c(-c4ccc(C5(N)CCC5)cc4)nn23)c1 [Example 4-18, 1-{4-[3-(5-Methoxypyridin-3-yl)-7-phenyl-imidazo[1,2-b]pyridazin-6-yl]-phenyl}-cyclobutylamine]	5	46	1810	–
NC1(c2ccc(-c3nn4c(-c5ccn[nH]5)cnc4cc3-c3ccccc3)cc2)CCC1 [Example 4-15, 1-{4-[7-Phenyl-3-(2H-pyrazol-3-yl)-imidazo[1,2-b]pyridazin-6-yl]-phenyl}-cyclobutylamine]	11	70	1400	–

Further lines, results first:

IC50 [1] [nM]	IC50 [2] [nM]	IC50 (KPL-4 cells) [nM]	IC50 [3] [µM]	Structure (SMILES)
–	–	2470	10	CCc1c(C)nc2cc(-c3ccccc3)c(-c3ccc(C4(N)CCC4)cc3)nn12 [Example 13-0, 1-[4-(3-Ethyl-2-methyl-7-phenyl-imidazo[1,2-b]pyridazin-6-yl)-phenyl]-cyclobutylamine]
68	41	1890	0.41	NC1(c2ccc(-c3nn4c(-c5ccc(F)cc5)c(Br)nc4cc3-c3ccccc3)cc2)CCC1 [Example 6-0, 1-{4-[2-Bromo-3-(4-fluorophenyl)-7-phenyl-imidazo[1,2-b]pyridazin-6-yl]-phenyl}-cyclobutylamine]
110	278	1850	–	CS(=O)(=O)c1ccc(-c2cnc3cc(-c4ccccc4)c(-c4ccc(C5(N)CCC5)cc4)nn23)cc1 [Example 4-0, 1-{4-[3-(4-Methanesulfonylphenyl)-7-phenyl-imidazo[1,2-b]pyridazin-6-yl]-phenyl}-cyclobutylamine]
44	277	6000	–	Cc1ccc(-c2cnc3cc(-c4ccccc4)c(-c4ccc(C5(N)CCC5)cc4)nn23)cc1 [Example 4-4, 1-[4-(7-Phenyl-3-p-tolyl-imidazo[1,2-b]pyridazin-6-yl)-phenyl]-cyclobutylamine]
4	58	2560	–	COC(=O)c1cccc(-c2cnc3cc(-c4ccccc4)c(-c4ccc(C5(N)CCC5)cc4)nn23)c1 [Example 4-2, 3-{6-[4-(1-Amino-cyclobutyl)-phenyl]-7-phenyl-imidazo[1,2-b]pyridazin-3-yl}-benzoic acid methyl ester]
4780	–	2750	10	Cc1nc2cc(-c3ccccc3)c(-c3ccc(C4(N)CCC4)cc3)nn2c1-c1cn[nH]c1 [Example 5-2, 1-{4-[2-Methyl-7-phenyl-3-(1H-pyrazol-4-yl)-imidazo[1,2-b]pyridazin-6-yl]-phenyl}-cyclobutylamine]
441	1730	–	–	Cc1cnc2cc(-c3ccccc3)c(-c3ccc(C4(N)CCC4)cc3)nn12 [Example 2-0, 1-[4-(3-Methyl-7-phenyl-imidazo[1,2-b]pyridazin-6-yl)-phenyl]-cyclobutylamine]
